Calls of active or inactive are those of the source.
Columns and labels:
[1] = molecular target: T1, Sphingosine 1-phosphate receptor 2 (Homo sapiens, UniProt O95136); experiment: Dose Response Cell Based Assay for Antagonists of the S1P2 Receptor. [Related pubchem assays: 856, 736 ]; assay type: functional
[2] = molecular target: T1, Sphingosine 1-phosphate receptor 2; experiment: Dose Response Cell Based Assay for Agonists of the S1P2 Receptor. [Related pubchem assays: 729, 736, 843 ]; assay type: functional
[3] = Luminescent dose response cell-based high throughput screening assay for inhibitors of the Janus kinase 2 mutant JAK2V617F. [Related pubchem assays: 1446 (Primary screen.), 1521 (Confirmation assay.), 1486 (Counter screen.)]; assay type: functional
[4] = Luminescence Cell-Based Dose Confirmation HTS to Identify Activators of 5'UTR Stem-Loop Driven Alpha-Synuclein mRNA Translation in H4 Neuroglioblastoma Cells. [Related pubchem assays: 1829 (Project Summary), 1814 (Primary HTS)]; assay type: functional
[5] = Luminescence Cell-Based Dose Response HTS to Identify Activators of Luciferase Translation or Activity in H4 […] Cells. [Related pubchem assays: 1829 (Project Summary), 1814 (Primary HTS)]; assay type: functional
H4 = experiment: Luminescence Cell-Based Dose Response HTS to Identify Activators of 5'UTR Stem-Loop Driven Prion Protein mRNA Translation in H4 Neuroglioblastoma Cells. [Related pubchem assays: 1829 (Project Summary), 1814 (Primary HTS)]; assay type: functional; conditions: Homo sapiens
[6] = molecular target: Protein-tyrosine kinase 2-beta (Homo sapiens, UniProt Q14289);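 further: potency of inhibitors of PYK2 kinase phosphorylation of poly-GT substrate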
[7] = Dose-response inhibition of insulin secretion in a rat insulinoma line at 5 mM glucose (AID 1117331); assay type: functional, cell-based; conditions: INS-1E
[8] = half-maximal inhibitory concentration for glucagon-like peptide-1 release, STC-1 cell line, dose-response (AID 1117345); assay type: functional, cell-based
[9] = Glucagon-like peptide 1 release potency, NCI-H716 cell line, dose-response, half-maximal inhibitory concentration (AID 1117344); assay type: functional, cell-based
[10] = molecular target: T2, RNA-binding protein pos-1 (Caenorhabditis elegans, UniProt G5EF15); experiment: inhibitors of POS-1/mex-3 RNA binding, dose response, biochemical, fluorescence polarization (AID 1964);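 further: purified POS-1 fused to maltose binding protein made in E. coli; potency of compounds blocking POS-1 binding to fluorescent RNA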
T2 sequence (G5EF15 whole entry): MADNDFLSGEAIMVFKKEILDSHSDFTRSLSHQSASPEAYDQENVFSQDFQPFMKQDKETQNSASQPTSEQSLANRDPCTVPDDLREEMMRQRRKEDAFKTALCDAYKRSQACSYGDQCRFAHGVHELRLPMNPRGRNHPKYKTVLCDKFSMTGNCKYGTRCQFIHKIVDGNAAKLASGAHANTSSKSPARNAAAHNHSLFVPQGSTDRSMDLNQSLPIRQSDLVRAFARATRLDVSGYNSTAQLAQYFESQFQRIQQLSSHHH

[11] = molecular target: T3, Zinc finger protein mex-5 (Caenorhabditis elegans, UniProt Q9XUB2); experiment: MEX-5/TCR-2 RNA interaction inhibitors, dose response, biochemical, C. elegans, fluorescence polarization (AID 1960)
T3 sequence (Q9XUB2 whole entry): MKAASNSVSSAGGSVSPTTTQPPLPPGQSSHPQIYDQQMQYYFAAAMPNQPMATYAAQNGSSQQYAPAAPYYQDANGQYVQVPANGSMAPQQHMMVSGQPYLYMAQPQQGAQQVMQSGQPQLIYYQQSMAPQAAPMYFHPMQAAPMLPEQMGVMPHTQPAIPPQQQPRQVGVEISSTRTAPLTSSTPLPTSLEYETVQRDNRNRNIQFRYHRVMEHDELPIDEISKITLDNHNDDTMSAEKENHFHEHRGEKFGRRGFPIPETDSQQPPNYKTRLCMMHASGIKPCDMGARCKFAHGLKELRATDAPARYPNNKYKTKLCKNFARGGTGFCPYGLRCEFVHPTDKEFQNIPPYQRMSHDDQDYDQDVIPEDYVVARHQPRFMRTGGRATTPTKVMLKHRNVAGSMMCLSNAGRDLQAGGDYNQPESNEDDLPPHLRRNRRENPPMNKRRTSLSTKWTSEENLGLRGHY

Large T antigen = Large T antigen (Simian virus 40, UniProt P03070); assay type: functional, Betapolyomavirus macacae;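 further: Confirmatory-stage PubChem screen for compounds that inhibit SV40 T antigen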
[12] = NIH-3T3 fibroblast cytotoxicity, dose response, cytotoxicity control, cell-based, fluorescence, Alamar Blue, secondary assay (AID 2327); assay type: functional;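 further: NIH-3T3 mouse fibroblasts cultured with fluconazole at 8 µg/mL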
[13] = test system: Streptococcus sp. 'group A'; experiment: growth inhibition of control SK(-) GAS strain, dose response, counter-screen for streptokinase expression inhibitor project, luminescence, kanamycin, BacTiterGlo, confirmation (AID 1900); assay type: functional, organism-based
BJ [14] = experiment: cytotoxicity toward BJ-TERT fibroblasts, dose response, cell-based, RAS-independent, luminescence (AID 1933); assay type: functional; conditions: Homo sapiens
Streptokinase A = molecular target: T4, Streptokinase A (Streptococcus pyogenes serotype M1, UniProt P10520); experiment: S. pyogenes streptokinase expression inhibitors, potency, dose response, plasminogen activation absorbance, OD405 (AID 1914); assay type: functional, Streptococcus pyogenes M1 GAS;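 further: secreted streptokinase activity via plasminogen activation per viability signal from cell pellet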
T4 sequence (P10520 whole entry): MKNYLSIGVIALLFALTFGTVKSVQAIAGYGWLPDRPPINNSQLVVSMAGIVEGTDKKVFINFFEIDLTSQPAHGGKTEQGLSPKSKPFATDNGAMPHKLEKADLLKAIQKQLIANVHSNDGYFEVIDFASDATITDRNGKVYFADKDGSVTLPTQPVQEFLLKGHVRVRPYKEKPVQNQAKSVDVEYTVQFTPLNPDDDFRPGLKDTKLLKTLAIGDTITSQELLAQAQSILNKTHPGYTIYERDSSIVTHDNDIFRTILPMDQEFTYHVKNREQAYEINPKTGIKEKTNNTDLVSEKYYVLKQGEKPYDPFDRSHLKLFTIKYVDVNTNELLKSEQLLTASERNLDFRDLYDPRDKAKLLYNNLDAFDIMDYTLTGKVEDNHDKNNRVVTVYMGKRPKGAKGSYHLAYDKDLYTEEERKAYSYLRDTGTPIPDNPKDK

BJ [15] = experiment: cells; assay type: functional, cell-based; conditions: Homo sapiens
[16] = C. albicans growth with fluconazole, confirmation, fluorescence, retest (AID 2467); assay type: functional, cell-based
[17] = growth suppression of PTEN-null colon cells, dose response, cell-based, HCT116 PTEN knockout (AID 1047); assay type: functional;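 further: HCT116 colon tumor cells with PTEN knocked out; cells exposed to compound for 60 hours before readout; potency for loss of cell viability measured by luminescence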
[18] = growth suppression of beta-catenin-knockout colon cells, dose response, cell-based, HCT116, human colon tumor (AID 1045); assay type: functional;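 further: HCT116 colon tumor cells with beta catenin knocked out; cells exposed to compound for 60 hours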
BJ [19] = experiment: cytotoxicity toward BJ-TERT-LT-ST fibroblasts, dose response, cell-based, RAS-independent, luminescence (AID 1935); assay type: functional; conditions: Homo sapiens;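 further: BJ fibroblasts immortalized with TERT plus LT and ST oncogenes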
[20] = cytotoxicity toward DRD oncogenic fibroblasts, dose response, cell-based, non-viral oncogenic, luminescence (AID 1934); assay type: functional; conditions: Homo sapiens
Streptococcus = experiment: Group A Streptococcus viability loss, dose response, counter-screen for streptokinase expression inhibitor project, luminescence, BacTiterGlo (AID 1915); assay type: functional, organism-based;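 further: potency for reduction of bacterial viability or growth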
[21] = molecular target: Eukaryotic translation initiation factor 4E (Mus musculus, UniProt P63073); experiment: eIF4E–eIF4G protein interaction inhibitors, dose response, biochemical, TR-FRET (AID 855); assay type: functional;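 further: potency for disrupting eIF4E binding to eIF4GI seen as loss of FRET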
[22] = cytotoxicity in HEK-293T cells, dose response, cytotoxicity control for TCR NF-kB inhibitor project, luminescence, T-cell screen hits (AID 489026); assay type: functional, cell-based;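 further: cells exposed to compound about 14 hours before the viability readout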
Nonstructural protein 1 = Nonstructural protein 1 (Influenza A virus, UniProt Q194T2); assay type: functional, Influenza A virus (A/California/07/2009(H1N1))
BJ [23] = experiment: cytotoxicity toward Ras-transformed BJeLR fibroblasts, dose response, cell-based, alamar blue fluorescence, cherrypicked samples (AID 2631); assay type: functional; conditions: Homo sapiens;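 further: confirmatory dose-response assay in RAS-dependent BJ fibroblasts engineered with TERT, LT and ST, with cytotoxicity read by fluorescence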
[24] = HeLa cell cytotoxicity, dose response, cytotoxicity control for MgcRacGAP inhibitor project (AID 624300); assay type: functional
[25] = molecular target: T5, Rac GTPase-activating protein 1 (Homo sapiens, UniProt Q9H0H5); experiment: MgcRacGAP GTPase-activating activity inhibitors, confirmation, biochemical, ADP Hunter fluorescence, primary and confirmatory (AID 624330); assay type: functional
T5 sequence (Q9H0H5 whole entry): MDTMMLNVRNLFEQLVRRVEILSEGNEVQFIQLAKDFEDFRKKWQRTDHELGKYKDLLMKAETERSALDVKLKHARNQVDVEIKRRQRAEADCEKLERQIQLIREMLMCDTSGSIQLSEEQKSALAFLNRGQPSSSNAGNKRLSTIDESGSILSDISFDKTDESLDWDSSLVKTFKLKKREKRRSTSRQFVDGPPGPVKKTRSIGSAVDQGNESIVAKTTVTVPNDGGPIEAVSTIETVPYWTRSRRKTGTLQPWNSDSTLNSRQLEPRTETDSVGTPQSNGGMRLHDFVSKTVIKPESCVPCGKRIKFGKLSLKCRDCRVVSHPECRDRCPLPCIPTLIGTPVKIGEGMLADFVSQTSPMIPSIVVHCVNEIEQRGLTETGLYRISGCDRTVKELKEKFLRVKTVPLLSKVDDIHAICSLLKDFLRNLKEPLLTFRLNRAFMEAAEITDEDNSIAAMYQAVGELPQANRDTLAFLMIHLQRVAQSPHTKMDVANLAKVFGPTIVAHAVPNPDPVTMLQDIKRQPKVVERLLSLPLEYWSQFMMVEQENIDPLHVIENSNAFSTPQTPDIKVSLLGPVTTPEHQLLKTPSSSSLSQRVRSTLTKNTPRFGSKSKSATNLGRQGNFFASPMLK

T1 sequence (O95136 whole entry): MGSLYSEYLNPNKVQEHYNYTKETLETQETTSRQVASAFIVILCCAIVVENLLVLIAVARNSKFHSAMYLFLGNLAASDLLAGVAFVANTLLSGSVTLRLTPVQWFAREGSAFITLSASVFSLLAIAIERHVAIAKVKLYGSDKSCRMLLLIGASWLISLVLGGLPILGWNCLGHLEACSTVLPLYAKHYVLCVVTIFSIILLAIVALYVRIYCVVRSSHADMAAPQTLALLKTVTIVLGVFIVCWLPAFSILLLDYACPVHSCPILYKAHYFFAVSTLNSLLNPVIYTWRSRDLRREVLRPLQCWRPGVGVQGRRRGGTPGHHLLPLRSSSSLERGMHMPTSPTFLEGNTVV
Protein-tyrosine kinase 2-beta, sequence (Q14289 whole entry): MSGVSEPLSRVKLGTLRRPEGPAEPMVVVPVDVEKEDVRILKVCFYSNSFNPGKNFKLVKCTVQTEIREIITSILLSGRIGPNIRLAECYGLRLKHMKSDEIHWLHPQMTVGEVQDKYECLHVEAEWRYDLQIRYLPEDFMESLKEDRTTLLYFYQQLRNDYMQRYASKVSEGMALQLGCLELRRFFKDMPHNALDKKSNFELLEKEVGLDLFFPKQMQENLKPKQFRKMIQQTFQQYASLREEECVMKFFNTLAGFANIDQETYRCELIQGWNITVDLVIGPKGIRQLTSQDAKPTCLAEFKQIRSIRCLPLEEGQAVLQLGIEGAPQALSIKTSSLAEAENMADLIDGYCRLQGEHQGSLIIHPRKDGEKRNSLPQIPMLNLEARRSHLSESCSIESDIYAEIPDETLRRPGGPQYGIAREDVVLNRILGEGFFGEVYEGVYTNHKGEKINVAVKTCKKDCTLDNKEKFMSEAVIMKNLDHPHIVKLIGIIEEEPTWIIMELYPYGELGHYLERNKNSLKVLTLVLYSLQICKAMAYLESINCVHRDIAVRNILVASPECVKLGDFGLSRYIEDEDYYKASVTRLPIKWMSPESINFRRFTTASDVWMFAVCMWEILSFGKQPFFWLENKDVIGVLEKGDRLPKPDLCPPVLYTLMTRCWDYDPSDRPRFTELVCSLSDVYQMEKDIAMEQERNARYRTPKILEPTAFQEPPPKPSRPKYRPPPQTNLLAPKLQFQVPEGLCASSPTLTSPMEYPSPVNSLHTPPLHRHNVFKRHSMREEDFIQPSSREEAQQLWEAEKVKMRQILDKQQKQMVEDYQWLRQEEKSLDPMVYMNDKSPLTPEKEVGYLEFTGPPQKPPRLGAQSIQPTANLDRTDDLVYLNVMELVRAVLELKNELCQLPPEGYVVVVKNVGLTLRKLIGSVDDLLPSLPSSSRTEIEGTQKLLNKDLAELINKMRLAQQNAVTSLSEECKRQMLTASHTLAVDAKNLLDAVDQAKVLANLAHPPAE
Large T antigen, sequence (P03070 whole entry): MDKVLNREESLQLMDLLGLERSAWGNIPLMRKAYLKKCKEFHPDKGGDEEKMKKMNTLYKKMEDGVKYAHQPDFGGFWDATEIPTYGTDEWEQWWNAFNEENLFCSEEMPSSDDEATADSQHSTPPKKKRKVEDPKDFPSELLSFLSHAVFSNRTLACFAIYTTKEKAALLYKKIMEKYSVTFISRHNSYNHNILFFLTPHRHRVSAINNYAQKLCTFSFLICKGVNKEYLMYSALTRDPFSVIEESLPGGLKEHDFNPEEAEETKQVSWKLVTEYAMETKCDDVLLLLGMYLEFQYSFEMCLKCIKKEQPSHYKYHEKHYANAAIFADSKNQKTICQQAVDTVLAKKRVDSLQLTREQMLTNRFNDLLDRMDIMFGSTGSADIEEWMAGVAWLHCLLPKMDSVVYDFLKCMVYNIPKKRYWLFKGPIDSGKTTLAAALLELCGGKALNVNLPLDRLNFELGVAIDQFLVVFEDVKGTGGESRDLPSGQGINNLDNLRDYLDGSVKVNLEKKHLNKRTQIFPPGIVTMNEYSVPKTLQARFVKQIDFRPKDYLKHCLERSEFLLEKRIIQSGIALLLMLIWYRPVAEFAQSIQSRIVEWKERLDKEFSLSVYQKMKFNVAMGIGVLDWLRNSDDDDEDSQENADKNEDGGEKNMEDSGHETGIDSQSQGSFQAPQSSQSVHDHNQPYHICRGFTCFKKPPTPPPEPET
Nonstructural protein 1, sequence (Q194T2 whole entry): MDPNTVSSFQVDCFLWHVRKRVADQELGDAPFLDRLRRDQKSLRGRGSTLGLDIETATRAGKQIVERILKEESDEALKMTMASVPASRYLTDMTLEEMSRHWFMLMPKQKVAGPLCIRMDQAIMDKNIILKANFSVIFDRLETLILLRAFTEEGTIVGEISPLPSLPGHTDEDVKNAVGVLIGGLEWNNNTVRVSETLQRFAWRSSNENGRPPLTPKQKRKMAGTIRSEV
Eukaryotic translation initiation factor 4E, sequence (P63073 whole entry): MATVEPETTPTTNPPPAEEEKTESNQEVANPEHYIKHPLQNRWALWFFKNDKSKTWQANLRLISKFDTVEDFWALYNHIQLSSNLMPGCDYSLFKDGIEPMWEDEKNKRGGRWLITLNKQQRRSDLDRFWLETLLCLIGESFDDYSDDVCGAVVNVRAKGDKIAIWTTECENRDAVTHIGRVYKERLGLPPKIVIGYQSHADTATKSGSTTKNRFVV

O=C(O)c1sc2cc(C(F)(F)F)cnc2c1-c1ccco1
IC50 [1]: > 30 µM (not active)

CS(=O)(=O)NCc1nnc(SCC(=O)NC2CCCCC2)n1-c1ccc(F)cc1
EC50 [2]: > 50 µM (not active)

Cc1nc(O)c(C(=O)/C=C/c2ccccc2F)c2c1CCCC2
IC50 [3]: 1.52 µM (active) | EC50 [4]: 9.92 µM (active) | EC50 [5]: > 120 µM (not active) | EC50 (H4): > 120 µM (not active)

O=C(N/N=C1/C(=O)c2cccc3cccc1c23)c1ccc(Cl)cc1
IC50 [6]: 4.31 µM (active)

COC(=O)C(Cl)C(=O)OC
IC50 [7]: > 33.3 µM (inactive) | IC50 [8]: 8.37 µM (inactive) | IC50 [9]: > 40 µM (inactive)

Oc1ccc2ccccc2c1/C=N/c1ccc(N2CCOCC2)cc1
EC50 [10]: > 300 µM (not active) | EC50 [11]: > 300 µM (not active) | IC50 (Large T antigen): 36 µM (active) | IC50 [6]: 10.6 µM (not active)

CCN1/C(=C/c2ccc3ccccc3[n+]2CC)C=Cc2ccccc21
EC50 [12]: 12 µM (active) | IC50 [1]: 3.1 µM (active) | EC50 [13]: 4.74 µM (active) | EC50 (BJ [14]): 1.21 µM (active) | EC50 (Streptokinase A): > 150 µM (not active) | EC50 (BJ [15]): 2.73 µM (active) | EC50 [16]: 0.639 µM (active) | EC50 [17]: 0.249 µM (active) | EC50 [18]: 0.167 µM (active) | EC50 (BJ [19]): 3.1 µM (inconclusive) | EC50 [20]: 3.27 µM (active) | EC50 (Streptococcus): 35 µM (active) | IC50 [21]: 33.8 µM (inactive) | IC50 [22]: 33.1 µM (inactive) | IC50 (Nonstructural protein 1): 12.8 µM (active) | EC50 (BJ [23]): 1.89 µM (active) | CC50 [24]: 19 µM (active) | IC50 [25]: 46.5 µM (active)

Cc1ccc(O)cc1 [p-CRESOL]
IC50 [7]: > 33.3 µM (inactive) | IC50 [8]: > 40 µM (inactive) | IC50 [9]: > 40 µM (inactive)

From ChEMBL document CHEMBL1201862, “PubChem BioAssay data set” (2004)
